Biological target: human Nav1.8 (Homo sapiens (Human), UniProt Q9Y5Y9)
Assay: E-VIPR optical membrane potential assay with electrical stimulation
Format: cell-based
Details: HEK cells expressing human Nav1.8
Text: Sodium channels are voltage-dependent proteins that can be activated by inducing membrane voltage changes by applying electric fields. […] The instrument comprises a microtiter plate handler, an optical system for exciting the coumarin dye while simultaneously recording the coumarin and oxonol emissions, a waveform generator, a current- or voltage-controlled amplifier, and a device for inserting electrodes in well. Under integrated computer control, this instrument passes user-programmed electrical stimulus protocols to cells within the wells of the microtiter plate.
24 hours before the assay on E-VIPR, HEK cells expressing human Nav1.8 were seeded in 384-well poly-lysine coated plates at 15,000-20,000 cells per well. […] Cells were grown in vented cap flasks, in 90% humidity and 5% CO2.
To make the solution added volume of 10% Pluronic F127 stock equal to volumes of CC2-DMPE+DiSBAC6(3). The order of preparation was first mixing Pluronic and CC2-DMPE, then adding DiSBAC6(3) while vortexing, then adding Bath1+β-Cyclodextrin.
1) Pre-spotted compounds (in neat DMSO) into compound plates. […] Final compound plate volume was 80 μL (80-fold intermediate dilution from 1 μL DMSO spot; 160-fold final dilution after transfer to cell plate).
2) Prepared Hexyl Dye Solution.
3) Prepared cell plates. On the day of the assay, medium was aspirated and cells were washed three times with 100 μL of Bath1 Solution, maintaining 25 μL residual volume in each well.
4) Dispensed 25 μL per well of Hexyl Dye Solution into cell plates. Incubated for 20-35 minutes at room temp or ambient conditions.
5) Dispensed 80 μL per well of Bath1 into compound plates. Acid Yellow-17 (1 mM) was added and Potassium Chloride was altered from 4.5 to 20 mM depending on the NaV subtype and assay sensitivity.
6) Washed cell plates three times with 100 μL per well of Bath1, leaving 25 μL of residual volume. Then transferred 25 uL per well from Compound Plates to Cell Plates. Incubated for 20-35 minutes at room temp/ambient condition.
7) Read Plate on E-VIPR. […] A pre-stimulus recording was performed for 0.5 seconds to obtain the un-stimulated intensities baseline. The stimulatory waveform was followed by 0.5 seconds of post-stimulation recording to examine the relaxation to the resting state.
Data was analyzed and reported as normalized ratios of emission intensities measured in the 460 nm and 580 nm channels. The response as a function of time was reported as the ratios obtained using the following formula: […]
The data was further reduced by calculating the initial (Ri) and final (Rf) ratios. These were the average ratio values during part or all of the pre-stimulation period, and during sample points during the stimulation period. The response to the stimulus R=Rf/Ri was then calculated and reported as a function of time.
Control responses were obtained by performing assays in the presence of a compound with the desired properties (positive control), such as tetracaine, and in the absence of pharmacological agents (negative control). Responses to the negative (N) and positive (P) controls were calculated as above. The compound antagonist activity A is defined as:
[formula] where R is the ratio response of the test compound

Chain of human Nav1.8 (Q9Y5Y9 whole entry): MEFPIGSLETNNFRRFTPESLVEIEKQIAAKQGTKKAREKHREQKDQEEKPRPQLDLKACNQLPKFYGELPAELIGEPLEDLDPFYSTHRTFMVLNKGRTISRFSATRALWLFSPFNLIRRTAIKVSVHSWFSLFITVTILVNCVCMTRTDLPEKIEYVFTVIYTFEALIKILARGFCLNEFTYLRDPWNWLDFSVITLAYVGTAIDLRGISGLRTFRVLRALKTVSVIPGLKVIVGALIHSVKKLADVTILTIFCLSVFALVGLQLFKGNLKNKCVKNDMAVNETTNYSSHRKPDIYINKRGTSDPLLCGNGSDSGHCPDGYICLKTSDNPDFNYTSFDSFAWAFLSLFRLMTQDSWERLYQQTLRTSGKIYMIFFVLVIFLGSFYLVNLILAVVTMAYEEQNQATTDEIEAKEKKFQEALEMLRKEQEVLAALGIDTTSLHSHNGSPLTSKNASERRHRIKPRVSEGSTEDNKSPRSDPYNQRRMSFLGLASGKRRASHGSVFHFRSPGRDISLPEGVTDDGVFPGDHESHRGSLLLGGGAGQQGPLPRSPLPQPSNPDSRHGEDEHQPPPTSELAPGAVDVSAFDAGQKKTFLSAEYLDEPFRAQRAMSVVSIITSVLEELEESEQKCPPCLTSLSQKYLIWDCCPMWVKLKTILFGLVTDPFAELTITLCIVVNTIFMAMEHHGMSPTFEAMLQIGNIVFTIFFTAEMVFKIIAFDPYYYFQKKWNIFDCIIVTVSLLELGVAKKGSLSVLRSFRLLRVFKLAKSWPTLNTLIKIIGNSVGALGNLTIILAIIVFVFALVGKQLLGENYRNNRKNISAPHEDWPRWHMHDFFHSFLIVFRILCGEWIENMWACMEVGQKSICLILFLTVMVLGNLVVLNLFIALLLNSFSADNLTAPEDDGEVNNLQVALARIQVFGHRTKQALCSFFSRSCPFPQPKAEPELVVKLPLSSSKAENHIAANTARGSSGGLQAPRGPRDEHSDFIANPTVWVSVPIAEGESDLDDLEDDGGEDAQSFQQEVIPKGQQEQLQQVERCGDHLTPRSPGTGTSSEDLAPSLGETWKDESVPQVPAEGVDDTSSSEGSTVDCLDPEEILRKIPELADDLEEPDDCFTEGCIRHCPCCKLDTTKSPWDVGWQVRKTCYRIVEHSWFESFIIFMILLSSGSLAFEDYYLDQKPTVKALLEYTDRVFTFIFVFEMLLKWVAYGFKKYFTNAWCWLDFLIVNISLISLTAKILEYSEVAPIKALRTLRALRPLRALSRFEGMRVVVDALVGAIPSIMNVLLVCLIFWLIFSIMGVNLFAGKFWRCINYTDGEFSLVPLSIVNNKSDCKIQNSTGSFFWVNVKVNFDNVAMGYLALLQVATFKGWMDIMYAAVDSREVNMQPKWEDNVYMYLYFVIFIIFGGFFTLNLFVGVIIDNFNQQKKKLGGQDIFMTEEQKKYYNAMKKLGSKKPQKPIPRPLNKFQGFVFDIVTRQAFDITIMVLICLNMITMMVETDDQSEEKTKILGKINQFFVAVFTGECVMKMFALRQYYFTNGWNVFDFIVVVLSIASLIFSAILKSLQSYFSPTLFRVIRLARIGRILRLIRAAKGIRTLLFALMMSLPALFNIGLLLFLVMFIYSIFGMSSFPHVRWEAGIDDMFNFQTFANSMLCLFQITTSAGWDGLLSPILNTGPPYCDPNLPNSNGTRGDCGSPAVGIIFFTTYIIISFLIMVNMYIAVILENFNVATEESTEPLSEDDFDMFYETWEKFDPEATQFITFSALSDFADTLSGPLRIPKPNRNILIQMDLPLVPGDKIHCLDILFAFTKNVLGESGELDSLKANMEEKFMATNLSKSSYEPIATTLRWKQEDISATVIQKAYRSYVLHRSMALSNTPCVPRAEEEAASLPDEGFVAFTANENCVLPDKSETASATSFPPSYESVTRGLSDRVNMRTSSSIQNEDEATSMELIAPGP

IC50 [nM]	SMILES
390	O=C(Nc1cc[nH]c(=O)c1)c1cc(F)ccc1Oc1ccc(OCC(F)(F)F)cc1 [Compound 107, 5-fluoro-N-(2-oxo-1,2-dihydropyridin-4-yl)-2-(4-(2,2,2-trifluoroethoxy)phenoxy)benzamide]
285	O=C(Nc1cc[nH]c(=O)c1)c1cc(F)ccc1Oc1ccc(OCC2CC2)cc1 [Compound 108, 2-(4-(cyclopropylmethoxy)phenoxy)-5-fluoro-N-(2-oxo-1,2-dihydropyridin-4-yl)benzamide]
890	COc1ccc(Oc2cc(C(F)(F)F)ccc2C(=O)Nc2cc[nH]c(=O)c2)c(Cl)c1F [Compound 110, 2-(2-chloro-3-fluoro-4-methoxyphenoxy)-N-(2-oxo-1,2-dihydropyridin-4-yl)-4-(trifluoromethyl)benzamide]
16	Cc1cc(F)ccc1Oc1cc(C(F)(F)C(F)(F)F)ccc1C(=O)Nc1cc[nH]c(=O)c1 [Compound 112, 2-(4-fluoro-2-methylphenoxy)-N-(2-oxo-1,2-dihydropyridin-4-yl)-4-(perfluoroethyl)benzamide]
488	CC(C)CCOc1cc(C(F)(F)F)ccc1C(=O)Nc1cc[nH]c(=O)c1 [Compound 116, 2-(isopentyloxy)-N-(2-oxo-1,2-dihydropyridin-4-yl)-4-(trifluoromethyl)benzamide]
765	O=C(Nc1cc[nH]c(=O)c1)c1ccc(C(F)(F)F)cc1O[C@@H]1C[C@H]2CCC1C2 [Compound 118, 2-((2R)-bicyclo[2.2.1]heptan-2-yloxy)-N-(2-oxo-1,2-dihydropyridin-4-yl)-4-(trifluoromethyl)benzamide]
14000	CC1(COc2cc(C(F)(F)F)ccc2C(=O)Nc2cc[nH]c(=O)c2)CC1 [Compound 119]
485	CC1(C)CC1COc1cc(C(F)(F)F)ccc1C(=O)Nc1cc[nH]c(=O)c1 (stereo not drawn) [Compound 124, 2-((2,2-dimethylcyclopropyl)methoxy)-N-(2-oxo-1,2-dihydropyridin-4-yl)-4-(trifluoromethyl)benzamide]
17500	O=C(Nc1cc[nH]c(=O)c1)c1ccc(C(F)(F)F)cc1OC1C[C@@H]2C[C@@H]2C1 (stereo partly drawn) [Compound 125, 2-((1R,5S)-bicyclo[3.1.0]hexan-3-yloxy)-N-(2-oxo-1,2-dihydropyridin-4-yl)-4-(trifluoromethyl)benzamide]
1400	O=C(Nc1cc[nH]c(=O)c1)c1ccc(C(F)(F)F)cc1OCC1CC1(F)F (stereo not drawn) [Compound 126, 2-((2,2-difluorocyclopropyl)methoxy)-N-(2-oxo-1,2-dihydropyridin-4-yl)-4-(trifluoromethyl)benzamide]
1300	O=C(Nc1cc[nH]c(=O)c1)c1ccc(C(F)(F)F)cc1OC1CC2CCC1C2 (stereo not drawn) [Compound 127, 2-(bicyclo[2.2.1]heptan-2-yloxy)-N-(2-oxo-1,2-dihydropyridin-4-yl)-4-(trifluoromethyl)benzamide]
560	O=C(Nc1cc[nH]c(=O)c1)c1ccc(C(F)(F)F)cc1OC1CCCCC1 [Compound 128, 2-(cyclohexyloxy)-N-(2-oxo-1,2-dihydropyridin-4-yl)-4-(trifluoromethyl)benzamide]

More lines, now with the values behind:

SMILES	IC50 [nM]
Cc1c[nH]c(=O)cc1NC(=O)c1ccc(C(F)(F)F)cc1Oc1ccc(F)cc1C [Compound 86, 2-(4-fluoro-2-methylphenoxy)-N-(5-methyl-2-oxo-1,2-dihydropyridin-4-yl)-4-(trifluoromethyl)benzamide]	3550
COc1c(F)cccc1Oc1cc(C(F)(F)F)ccc1C(=O)Nc1cc[nH]c(=O)c1 [Compound 87, 2-(3-fluoro-2-methoxyphenoxy)-N-(2-oxo-1,2-dihydropyridin-4-yk)-4-(trifluoromethyl)benzamide]	27
COc1ccc(Oc2cc(C(F)(F)C(F)(F)F)ccc2C(=O)Nc2cc[nH]c(=O)c2)cc1F [Compound 89, 2-(3-fluoro-4-methoxyphenoxy)-N-(2-oxo-1,2-dihydropyridin-4-yl)-4-(perfluoroethyl)benzamide]	16
Cc1cc(C)c(C)c(Oc2ccc(C(F)(F)F)cc2C(=O)Nc2cc[nH]c(=O)c2)c1 [Compound 91, N-(2-oxo-1,2-dihydropyridin-4-yl)-5-(trifluoromethyl)-2-(2,3,5-trimethylphenoxy)benzamide]	420
Cc1ccc(Oc2ccc(C(F)(F)F)cc2C(=O)Nc2cc[nH]c(=O)c2)c(F)c1F [Compound 92, 2-(2,3-difluoro-4-methylphenoxy)-N-(2-oxo-1,2-dihydropyridin-4-yl)-5-(trifluoromethyl)benzamide]	135
Cc1cc(C)c(Oc2ccc(C(F)(F)F)cc2C(=O)Nc2cc[nH]c(=O)c2)cc1C [Compound 93, N-(2-oxo-1,2-dihydropyridin-4-yl)-5-(trifluoromethyl)-2-(2,4,5-trimethylphenoxy)benzamide]	1450
Cc1cc(C)c(C)c(Oc2ccc(F)cc2C(=O)Nc2cc[nH]c(=O)c2)c1 [Compound 94, 5-fluoro-N-(2-oxo-1,2-dihydropyridin-4-yl)-2-(2,3,5-trimethylphenoxy)benzamide]	1400
O=C(Nc1cc[nH]c(=O)c1)c1cc(F)ccc1Oc1ccccc1 [Compound 95, 5-fluoro-N-(2-oxo-1,2-dihydropyridin-4-yl)-2-phenoxybenzamide]	3450
O=C(Nc1cc[nH]c(=O)c1)c1cc(F)ccc1Oc1ccc(C2CC2)cc1 [Compound 96, 2-(4-cyclopropylphenoxy)-5-fluoro-N-(2-oxo-1,2-dihydropyridin-4-yl)benzamide]	400
CC(C)(C)Oc1ccc(Oc2ccc(F)cc2C(=O)Nc2cc[nH]c(=O)c2)cc1 [Compound 97, 2-(4-(tert-butoxy)phenoxy)-5-fluoro-N-(2-oxo-1,2-dihydropyridin-4-yl)benzamide]	745
CCOc1ccc(Oc2ccc(F)cc2C(=O)Nc2cc[nH]c(=O)c2)cc1 [Compound 98, 2-(4-ethoxyphenoxy)-5-fluoro-N-(2-oxo-1,2-dihydropyridin-4-yl)benzamide]	300
CC(C)c1ccc(Oc2ccc(F)cc2C(=O)Nc2cc[nH]c(=O)c2)cc1 [Compound 99, 5-fluoro-2-(4-isopropylphenoxy)-N-(2-oxo-1,2-dihydropyridin-4-yl)benzamide]	5150
CCCOc1ccc(Oc2ccc(F)cc2C(=O)Nc2cc[nH]c(=O)c2)cc1 [Compound 100, 5-fluoro-N-(2-oxo-1,2-dihydropyridin-4-yl)-2-(4-propoxyphenoxy)benzamide]	155
COCCc1ccc(Oc2ccc(F)cc2C(=O)Nc2cc[nH]c(=O)c2)cc1 [Compound 102, 5-fluoro-2-(4-(2-methoxyethyl)phenoxy)-N-(2-oxo-1,2-dihydropyridin-4-yl)benzamide]	17100
COc1ccc(Oc2ccc(F)cc2C(=O)Nc2cc[nH]c(=O)c2)c(Cl)c1 [Compound 103, 2-(2-chloro-4-methoxyphenoxy)-5-fluoro-N-(2-oxo-1,2-dihydropyridin-4-yl)benzamide]	330
COc1ccc(Oc2ccc(F)cc2C(=O)Nc2cc[nH]c(=O)c2)cc1 [Compound 104, 5-fluoro-2-(4-methoxyphenoxy)-N-(2-oxo-1,2-dihydropyridin-4-yl)benzamide]	1150
Cc1cc(C)c(Oc2ccc(F)cc2C(=O)Nc2cc[nH]c(=O)c2)cc1C [Compound 105, 5-fluoro-N-(2-oxo-1,2-dihydropyridin-4-yl)-2-(2,4,5-trimethylphenoxy)benzamide]	3550
CC(C)COc1cc(C(F)(F)F)ccc1C(=O)Nc1cc[nH]c(=O)c1 [Compound 117, 2-isobutoxy-N-(2-oxo-1,2-dihydropyridin-4-yl)-4-(trifluoromethyl)benzamide]	1140
O=C(Nc1cc[nH]c(=O)c1)c1ccc(C(F)(F)F)cc1OCC1CCOC1 (stereo not drawn) [Compound 121, N-(2-oxo-1,2-dihydropyridin-4-yl)-2-((tetrahydrofuran-3-yl)methoxy)-4-(trifluoromethyl)benzamide]	19000
O=C(Nc1cc[nH]c(=O)c1)c1ccc(C(F)(F)F)cc1OC1CCC1 [Compound 122, 2-cyclobutoxy-N-(2-oxo-1,2-dihydropyridin-4-yl)-4-(trifluoromethyl)benzamide]	4200
O=C(Nc1cc[nH]c(=O)c1)c1ccc(Cl)cc1OCCCC(F)(F)F [Compound 129, 4-chloro-N-(2-oxo-1,2-dihydropyridin-4-yl)-2-(4,4,4-trifluorobutoxy)benzamide]	940
